Test results: US20240352145A1, “EFFICACY OF ANTI-TROP-2-SN-38 ANTIBODY DRUG CONJUGATES FOR THERAPY OF TUMORS RELAPSED/REFRACTORY TO CHECKPOINT INHIBITORS” (Immunomedics, Inc., priority 2016, published 2024)
Like-named read-outs stand apart in the source and are kept apart here.

What was measured:
TNBC = type: in vivo, human
Description: Medical History—The patient is a person who was first diagnosed in October 2007 with a 1.8 cm mass in their right breast. They underwent a right mastectomy with a sentinel node biopsy (no malignancy in nodes). The tumor was determined to be negative for ER, PR and Her-2 (i.e., TNBC). They proceeded with 4 cycles of AC (doxorubicin and cyclophosphamide) therapy, followed by weekly low dose paclitaxel (×12). […] They had local surgery to remove the node and then received XRT (radiation therapy) through March 2009. In June 2010 CT documented recurrent pulmonary and bone involvement. The patient enrolled in a clinical trial using AVASTIN® (bevacizumab), METMAB® (onartuzumab, […]), and TAXOL® (paclitaxel), which they were maintained on until March 2013, having a complete response, but eventual progression of peripheral lung nodule and node in AP (aortopulmonary) window. In September 2014, they started on PD-L1 antibody (MPDL3280A) for 6 cycles, but progressed in January 2015.
2015 at a dose of 10 mg/kg, and has continued to receive this dose without reduction or delay in planned schedule now for 40+ doses.

[1] = test system: BxPC-3 human pancreatic tumors; assay: BxPC-3 xenograft therapy; type: in vivo, mouse
Description: NCr female athymic nude (nu/nu) mice, 4 to 8 weeks old, and male Swiss-Webster mice, 10 weeks old, were purchased from Taconic Farms. Tolerability studies were performed in Cynomolgus monkeys (Macaca fascicularis; 2.5-4 kg male and female) by SNBL USA, Ltd. Animals were implanted subcutaneously with different human cancer cell lines. Tumor volume (TV) was determined by measurements in 2 dimensions using calipers, with volumes defined as: L×w^2/2, where L is the longest dimension of the tumor and w is the shortest. […] This dosing frequency reflected a consideration of the conjugate's serum half-life […], to allow a more continuous exposure to the ADC.
Statistics—Growth curves are shown as percent change in initial TV over time. Statistical analysis of tumor growth was based on area under the curve (AUC). Profiles of individual tumor growth were obtained through linear-curve modeling. An f-test was employed to determine equality of variance between groups before statistical analysis of growth curves. A 2-tailed t-test was used to assess statistical significance between the various treatment groups and controls, except for the saline control, where a 1-tailed t-test was used (significance at P≤0.05). Statistical comparisons of AUC were performed only up to the time that the first animal within a group was euthanized due to progression.

[2] = test system: BXPC3 model of human pancreatic cancer; settings: mouse, in vivo, sc

Q: Which results are given for IMMU-132?
A: Best Response, shrinkage (TNBC; 10 mg/kg): 54%; Best Response (TNBC; 10 mg/kg, patient progressed after PD-L1 therapy): Partial response, confirmed; decrease in sum of target lesion diameters (TNBC; CT 7 Apr. 2015, first assessment): 33%; decrease in sum of target lesion diameters (TNBC; CT 13 Sep. 2015): 52%; decrease in sum of target lesion diameters (TNBC; CT 15 November): 54%; decrease in sum of target lesion diameters (TNBC; CT 18 May 2015): 48%; decrease in sum of target lesion diameters (TNBC; CT 19 Jul. 2015): 50%; decrease in sum of target lesion diameters (TNBC; CT 25 Feb. 2016): 46%; time to progression (TNBC; not reached): ≥ 12.4 months; tumor volume (TV) ([1]; day 21, equivalent amounts of ADC): 0.24±0.11 cm^3; tumor volume (TV) ([1]; day 25): 0.27±0.18 cm^3; therapeutic efficacy [2]: better therapeutic efficacy than control treatments
